This is an account of results in ChEMBL document CHEMBL1201862, “PubChem BioAssay data set” (2004).

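Interpolation was linear, between the two tested concentrations surrounding the appropriate level; five concentrations were tested over 48 hours in 96-well plates. At the GI50, growth is halved.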 Calls of active or inactive are those of the source. No stated cut-off is given here; in the data, active = GI50 up to about 1.1 µM and inactive = higher.

Some test systems named below: SK-MEL-28; OVCAR-8; UACC-257; M14; NCI-H23; 786-0; HOP-92; RPMI-8226; U-251; SNB-75; HOP-18; ACHN; HT-29; IGROV-1; NCI-H522; Hs-578T; BT-549; MCF7; MDA-MB-231; DU-145.
Test in all cases: DTP human tumour cell line panel, 48 h

For orientation: GI50 means the concentration giving 50% growth inhibition. Regarding `O=C1C=C(Nc2ccccc2C(=O)c2ccccc2)c2ccccc2C1=O`, the GI50 in the assay with SK-MEL-28 is > 100 µM (inactive); in the assay on OVCAR-8 it was > 100 µM (inactive); with UACC-257 it was 5.85 µM (inactive); in the assay on M14, > 100 µM (inactive); with NCI-H23 it was > 100 µM (inactive); with 786-0, > 100 µM (inactive). Further, the GI50 in the assay with HOP-92 is 4.06 µM (inactive); with RPMI-8226, 51.6 µM (inactive); with U-251 it was 70.8 µM (inactive); in the assay on SNB-75, 96.6 µM (inactive); with HOP-18, > 100 µM (inactive); in the assay on ACHN it was 45 µM (inactive). The GI50 with HT-29 was > 100 µM (inactive); in the assay on IGROV-1 it was > 100 µM (inactive); in the assay on NCI-H522, 25 µM (inactive).
On to `O=C(CCc1nnc2s/c(=C\c3ccc(Cl)cc3Cl)c(=O)n12)Nc1cc(Cl)c(Cl)cc1Cl`, for which the GI50 in the assay on SK-MEL-28, in the assay with OVCAR-8, in the assay with UACC-257, with M14, in the assay on NCI-H23 and with 786-0 was > 10 µM (inactive) each time. The GI50 with HOP-92 was 24 µM (inactive); with RPMI-8226 it was > 10 µM (inactive); in the assay on U-251 it was 72.4 µM (inactive); in the assay with SNB-75, 29 µM (inactive); in the assay on HOP-18, > 10 µM (inactive); with ACHN, > 10 µM (inactive). The GI50 in the assay with HT-29 was > 10 µM (inactive); in the assay with IGROV-1 it was > 10 µM (inactive); in the assay with NCI-H522 it was 2.31 µM (inactive).
Regarding `Cc1[nH]c2c(C)cccc2c1C1Cc2ccccc2N1` (stereo unspecified), the GI50 with SK-MEL-28 is 18.8 µM (inactive); in the assay with OVCAR-8, 19.5 µM (inactive); in the assay with UACC-257, 22.3 µM (inactive); in the assay with M14 it was 15.5 µM (inactive); in the assay with NCI-H23, 20.3 µM (inactive); with 786-0, 22.3 µM (inactive). In addition, the GI50 was 0.0214 µM (active) with HOP-92; 22.9 µM (inactive) in the assay on RPMI-8226; 20 µM (inactive) in the assay on U-251; > 100 µM (inactive) in the assay with SNB-75; 17.8 µM (inactive) with HOP-18; 27.4 µM (inactive) in the assay on ACHN. Further, the GI50 in the assay on HT-29 is 19.5 µM (inactive); in the assay on IGROV-1, 17.3 µM (inactive); in the assay with NCI-H522 it was 19.5 µM (inactive).
On to `N#CC(C(=N/NC(N)=S)/C(=N\NC(N)=S)C(C#N)c1ccccc1)c1ccccc1` (stereo unspecified), for which the GI50 in the assay on SK-MEL-28, with OVCAR-8, in the assay with UACC-257, with M14, with NCI-H23 and with 786-0 was > 10 µM (inactive) throughout. The GI50 in the assay with HOP-92, in the assay on RPMI-8226, with U-251, in the assay on SNB-75, in the assay with HOP-18 and in the assay with ACHN was > 10 µM (inactive) each time. Also, the GI50 in the assay on HT-29 and in the assay with NCI-H522 was > 10 µM (inactive) throughout.
`CC(=O)OCc1c(O)nc2c(c1O)-c1ccccc1CC2`: the GI50 was 59.6 µM (inactive) with SK-MEL-28; 101 µM (inactive) in the assay with OVCAR-8; 81.3 µM (inactive) with UACC-257; 76.6 µM (inactive) in the assay with NCI-H23; 56.9 µM (inactive) in the assay on 786-0; 78.5 µM (inactive) with HOP-92. Further, the GI50 was 38.5 µM (inactive) in the assay with RPMI-8226; > 350 µM (inactive) in the assay with U-251; 129 µM (inactive) in the assay with HOP-18; 163 µM (inactive) in the assay on ACHN; 113 µM (inactive) in the assay with HT-29; 164 µM (inactive) in the assay on IGROV-1. In addition, the GI50 in the assay on NCI-H522 is 35.6 µM (inactive).
`CC(=O)Nc1ccc(C2[C@H]3C(=O)N(c4ccc(Cc5ccc(N6C(=O)[C@@H]7ON(c8ccccc8)C(c8ccc(NC(C)=O)cc8)[C@@H]7C6=O)cc5)cc4)C(=O)[C@H]3ON2c2ccccc2)cc1` (stereo partly specified): the GI50 in the assay with SK-MEL-28 is > 100 µM (inactive); in the assay with OVCAR-8, > 100 µM (inactive); in the assay with UACC-257, > 100 µM (inactive); with M14 it was 25.2 µM (inactive); in the assay with NCI-H23, > 100 µM (inactive); in the assay with 786-0 it was > 100 µM (inactive). Further, the GI50 with RPMI-8226, with U-251, in the assay on SNB-75, in the assay with HOP-18, in the assay on ACHN and in the assay with HT-29 was > 100 µM (inactive) each time. Moreover, the GI50 in the assay on IGROV-1 and in the assay on NCI-H522 was > 100 µM (inactive) in each case.
On to `COc1ccc(N2C(=O)/C(=C/c3ccc(N(CCC#N)CCC#N)cc3C)N=C2c2cc([N+](=O)[O-])ccc2Cl)cc1`, for which the GI50 was 11 µM (inactive) in the assay on SK-MEL-28; 5.33 µM (inactive) in the assay on OVCAR-8; 46.3 µM (inactive) with UACC-257; 4.67 µM (inactive) with M14; 1.54 µM (inactive) in the assay on Hs-578T; 7.59 µM (inactive) in the assay on NCI-H23. Moreover, the GI50 in the assay on BT-549 is 53.2 µM (inactive); with 786-0, 4.43 µM (inactive); in the assay with HOP-92, > 31.7 µM (inactive); in the assay on MCF7, 4.81 µM (inactive); in the assay with RPMI-8226 it was 4.18 µM (inactive); in the assay with U-251 it was 4.42 µM (inactive). Besides, the GI50 is 12.6 µM (inactive) with MDA-MB-231; 3.3 µM (inactive) in the assay on SNB-75; > 100 µM (inactive) in the assay with HOP-18; 22.6 µM (inactive) in the assay with ACHN; 4.07 µM (inactive) in the assay with HT-29; 19.7 µM (inactive) with IGROV-1. The figures for the GI50 in the assay with NCI-H522 and in the assay with DU-145 were 2.74 µM (inactive) and 6.34 µM (inactive), respectively.
In the case of `COc1cc(/C=C2\CCc3ccccc3C2=O)cc(OC)c1OC`, the GI50 in the assay on SK-MEL-28 was 15.1 µM (inactive); in the assay on OVCAR-8, 16.2 µM (inactive); with UACC-257, 14.3 µM (inactive); in the assay on M14 it was 16.2 µM (inactive); in the assay with NCI-H23 it was 15.7 µM (inactive); in the assay on 786-0 it was 15.7 µM (inactive). Moreover, the GI50 in the assay on HOP-92 was 11.1 µM (inactive); in the assay on RPMI-8226, 3.92 µM (inactive); in the assay with U-251, 16.1 µM (inactive); in the assay with SNB-75, 22.2 µM (inactive); in the assay on HOP-18, 13.6 µM (inactive); with ACHN, 15.8 µM (inactive). For the same compound, the GI50 is 17.5 µM (inactive) in the assay with HT-29 and 14.8 µM (inactive) in the assay with NCI-H522.
Turning to `O=C(CSc1nnc(Cc2ccccc2)o1)Nc1ccc(Cl)cc1[N+](=O)[O-]`, the GI50 in the assay on SK-MEL-28 was 15.5 µM (inactive); in the assay with OVCAR-8 it was 29.8 µM (inactive); in the assay with UACC-257 it was 19.9 µM (inactive); with M14, 16.5 µM (inactive); in the assay on NCI-H23, 17.4 µM (inactive); in the assay with 786-0 it was 16.5 µM (inactive). Also, the GI50 with RPMI-8226 was 17.9 µM (inactive); with U-251 it was 19.5 µM (inactive); in the assay on SNB-75 it was 18.9 µM (inactive); in the assay on HOP-18 it was 14.7 µM (inactive); with ACHN it was 12.6 µM (inactive); with HT-29, 22.3 µM (inactive). Moreover, the GI50 in the assay on NCI-H522 was 3.17 µM (inactive).
Consider `O=C1c2ccccc2N2OC3(N4CCCC4)CCCCC3C12c1ccccc1` (stereo unspecified), for which the GI50 in the assay with SK-MEL-28 is 25.4 µM (inactive); with OVCAR-8, 17.5 µM (inactive); in the assay on UACC-257, 19.3 µM (inactive); in the assay on M14, 17.6 µM (inactive); in the assay with NCI-H23 it was 20.1 µM (inactive); in the assay on 786-0 it was 17.7 µM (inactive). Further, the GI50 in the assay with HOP-92 is 16.1 µM (inactive); in the assay with RPMI-8226, > 100 µM (inactive); with U-251 it was 28.1 µM (inactive); with SNB-75, 34.1 µM (inactive); in the assay with HOP-18, > 100 µM (inactive); in the assay with ACHN it was 18.5 µM (inactive). Further, the GI50 with HT-29 is 21.8 µM (inactive); in the assay with IGROV-1, 42 µM (inactive); in the assay with NCI-H522, 14.9 µM (inactive).
For `CCOC(=O)C(CCCNC(=O)OC(C)(C)C)N(Cc1ccc(OC)cc1OC)C(=O)CC(=O)CP(=O)(OCC)OCC` (stereo unspecified), the GI50 in the assay with SK-MEL-28, in the assay with OVCAR-8, in the assay with UACC-257, with M14, in the assay with NCI-H23 and in the assay on 786-0 was > 100 µM (inactive) each time. The GI50 is 16.2 µM (inactive) in the assay with HOP-92; > 100 µM (inactive) in the assay on RPMI-8226; > 100 µM (inactive) with U-251; > 100 µM (inactive) in the assay on SNB-75; > 100 µM (inactive) with HOP-18; > 100 µM (inactive) in the assay with ACHN. For the same compound, the GI50 in the assay with HT-29 was > 100 µM (inactive); in the assay with IGROV-1 it was > 100 µM (inactive); in the assay with NCI-H522, 29 µM (inactive).
`CCOC(=O)NNC(=O)NC12CC3CC(CC(C3)C1)C2`: the GI50 with SK-MEL-28, in the assay on OVCAR-8, with UACC-257, with M14, in the assay on NCI-H23 and in the assay with 786-0 was > 100 µM (inactive) each time. For the same compound, the GI50 with HOP-92, with U-251, with SNB-75, in the assay on HOP-18, in the assay on ACHN and in the assay on HT-29 was > 100 µM (inactive) in each case. Also, the GI50 with IGROV-1 and in the assay on NCI-H522 was > 100 µM (inactive) in each case.
`CCCCCCCCCCCCCC(=O)NCC(OCC)OCC`: the GI50 with SK-MEL-28, in the assay with OVCAR-8, in the assay with UACC-257, with M14, with NCI-H23 and in the assay on 786-0 was > 100 µM (inactive) in each case. For the same compound, the GI50 with HOP-92, in the assay with U-251, in the assay with SNB-75, with HOP-18, with ACHN and in the assay on HT-29 was > 100 µM (inactive) each time. For the same compound, the GI50 with IGROV-1 and in the assay with NCI-H522 was > 100 µM (inactive) each time.
